# According to a melting point compilation (Tetko et al.; mined from patent text by program, amines drawn as free bases though some values may be those of a salt):
row,melting point [°C],SMILES
1,211 to 212,C#CCc1c(Cl)nc(N)nc1Cl
2,57 to 58,COC(=O)CCc1conc1-c1ccc(F)c(Br)c1
3,240 to 244,C=Cc1cc(Cl)cc2[nH]c(=O)c(-c3ccccc3)c(O)c12
4,140,COc1ccc(OCc2cccc(C(=O)O)c2)cc1Cc1cnc(N)nc1N
5,140 to 141,CCc1nc2c(C)cc(C)nc2n1Cc1ccc(C(c2ccc(C)cc2)C(C(=O)O)C(=O)O)cc1 (stereo not drawn)
6,127 to 129,Cc1ccc2c3c(ccc2n1)OC[C@H](CNC[C@H]1CCc2c(c4cc(F)ccc4n2C)C1)O3
7,99 to 101,COc1nc(C)cnc1N(C(=O)OCC(C)C)S(=O)(=O)c1cccnc1Cl
8,156 to 158,CN(C)C(=O)Cc1c(-c2ccccc2)nn2cccnc12
9,244 to 245,O=c1c(CCO)c(O)c2cccnc2n1-c1cccc([N+](=O)[O-])c1
10,152 to 154,O=C1Nc2ccccc2N(C(=O)N2CCCC(CCN3CCCCCC3)C2)c2ncccc21 (stereo not drawn)
11,179 to 180,Cc1c(Sc2cc(Cl)c(Cl)cc2Cl)cc(C(C)(C)C)c(O)c1C(=O)Nc1ccc([N+](=O)[O-])cc1C(F)(F)F
12,122 to 124,Cc1cc2c(Cl)nnc(Cl)c2n1Cc1ccccc1
13,218 to 220,CC12CCC(C(=O)O)=CC1=CCC1C2CCC2(C)C(C(=O)CCc3ccccc3)CCC12 (stereo not drawn)
14,267 to 268,Cc1oc(-c2ccccc2)nc1COc1ccc2cc(C=CC=C3SC(=O)NC3=O)ccc2c1
15,129 to 132,O=C1N(c2ccccc2Br)Cc2cnc(Nc3ccccc3)nc2N1c1ccc(CO)cc1
16,254 to 255,CC(C)NC(=O)c1n[nH]cc1NC(=O)c1ccccn1
17,180 to 184,CCCCCCN(CCCCCC)C(=O)COc1cc(C(=O)O)c([N+](=O)[O-])c(C(=O)O)c1
18,251 to 252,CCn1c(=O)c2c(-c3nc(C)no3)ncn2c2cccnc21
19,159 to 161,CC(=O)Oc1ccccc1C(=O)Nc1ccc(-n2nc(C(F)(F)F)cc2C(F)(F)F)cc1
20,127 to 129,CC(C)(C)OC(=O)NC1CCc2ccccc2C(F)C1=O (stereo not drawn)
21,301 to 303,Cc1cn2c(=O)c(C(=O)O)cnc2c2cc([N+](=O)[O-])ccc12
22,162 to 164,CCCCc1oc2ccccc2c1C(=O)NCc1ccc2c(-c3ccc(C(C)(C)C)cc3)c(OCC#N)ccc2c1
23,136 to 137,CNC1CCC2C3CCc4cc(OC)ccc4C3CCC12C (stereo not drawn)
24,96 to 97,CCOC(=O)C(=CNc1ccnn1-c1ccccc1)C(=O)OCC
25,172 to 173,COc1ccc(S(=O)(=O)Nc2cccnc2Nc2ccncc2)cc1
26,193 to 194,CC1(C)CN(c2ncc(C(=O)N(CC3CC3)c3cccc(C(F)(F)F)c3)c(N)n2)C(=O)N1
27,104 to 108,CC(=O)N1C(C)(C)CC(N2CCCCCC2=O)CC1(C)C
28,133 to 134,COc1ccc2nc(-c3cccc(C)c3)cc(OCc3ccccc3)c2c1
29,294 to 296,O=C(O)c1ccc(-c2nc3ccccc3s2)cc1
30,130 to 132,CC(C(=O)O)c1ccc2c(c1)C(=O)C(C(C)C)C2 (stereo not drawn)

# Second part, the compound before the results:
row,SMILES,melting point [°C]
1,Cc1oc(-c2ccccc2)nc1COc1ccc(Cn2cc(CCC(=O)O)c(-c3ccccc3)n2)nc1,175 to 176
2,Cn1ccc2ccc(-c3ccc(C(F)(F)F)cc3)cc21,100
3,O=C1c2c(O)ccc(O)c2C(=O)c2c(NCCN3CCC(O)CC3)ccc(NCCN3CCC(O)CC3)c21,241 to 244
4,CCCN(C(=O)OCC(Cl)(Cl)Cl)C1CN(C(=O)Nc2ccc(C(F)(F)F)cc2)N=C1c1ccc(OC(F)F)c(C)c1 (stereo not drawn),165 to 166
5,Cc1cc(C(=O)O)n(CC(F)(F)F)n1,135 to 139
6,C[C@@H](N1CC(=O)N(c2ccc(OC(F)(F)C(F)F)cc2)CC1=O)[C@@]1(c2ccc(F)cc2F)CO1,168 to 170
7,CNc1nc(C)c(-c2cn3ccc(C)cc3n2)s1,220 to 221
8,Oc1ccc2cc(OCCN3CCC(Cc4ccccc4)CC3)ccc2c1,139 to 141
9,CCc1ccc(Nc2c(F)c(F)cc(F)c2F)c(CC(=O)O)c1,165 to 169
10,O=C(O)C1=CS[C@@H]2/C(=C\c3ccc4nc5sccn5c4c3)C(=O)N12,> 250
11,ClCC1(CCl)Cc2cccc3cccc1c23,212 to 213
12,CC(N)CSc1c[nH]c2ccccc12 (stereo not drawn),110 to 112
13,CC(=Cc1c[nH]c2ccc(CNS(C)(=O)=O)cc12)[N+](=O)[O-],201 to 202
14,CN(Cc1ccccc1)[C@H](Cc1c[nH]c2ccccc12)c1nc(-c2ccccc2)c[nH]1,110 to 112
15,CCn1c(=O)[nH]c2c3ccccc3ccc21,240 to 242
16,Nc1cc(Br)nc(CO)c1,144 to 145
17,Cn1nc(N)c2sc3ncccc3c21,194 to 196
18,COC(=O)C[C@H](O)CC(=O)C=Cc1c(-c2ccc(F)cc2)c(-c2ccccc2)c(C(=O)Nc2ccccc2)n1C(C)C,72 to 74
19,CC(=O)Cc1cc2c(cc1C(=O)c1ccc([N+](=O)[O-])c(C)c1)OCO2,146 to 148
20,Sc1ncc2c(n1)-c1ccc(Cl)cc1C(c1ccccc1Cl)=NC2,232 to 234
21,CC1Cc2cc3c(cc2C(c2ccc([N+](=O)[O-])cc2)=NN1c1nncs1)OCO3 (stereo not drawn),212 to 213
22,CN1CCN(c2cccc3c2CC[C@@H](N)C3)CC1,98 to 99
23,NC(=O)c1ccc(NC2CCOCC2)cc1,208 to 210

row,SMILES,melting point [°C]
1,CC(C)(O)C1CCN(c2ccc(C#N)c3ccccc23)CC1,133 to 134
2,CCCc1c(OCCCCCCCC(=O)O)ccc(C(C)=O)c1O,73 to 76
3,CCCCCCC(c1ccc2[nH]c(-c3ccc(F)cc3)nc2c1)n1ccnc1 (stereo not drawn),122
4,C#C[C@@](C)(O)CCC1=C(C)C(=O)C(C)=C(C)C1=O,80 to 82
5,Cc1ccc(Oc2ccncc2[N+](=O)[O-])cn1,87 to 90
6,Fc1cccc(C(F)(F)F)c1N(CC1CC1)C1=NCCN1,126 to 127
7,CN1C(C)(C)CC2(CC1(C)C)NC(=O)N(CC(O)CN1C(=O)NC3(CC(C)(C)N(C)C(C)(C)C3)C1=O)C2=O,255 to 256
8,CC(C)(CCC(=O)N[C@H](Cc1ccc(-c2ccccc2)cc1)C(=O)NCCCCNc1ncccn1)C(=O)O,85 to 98
9,CC(C)N1C(=O)c2cnc(-c3ccccc3)nc2N(C(=O)CCl)c2ccccc21,204 to 205
10,CCCCCCCCCCCCSc1ccc2c(c1)C(=O)c1c(c(Oc3ccccc3)c3ccccc3c1Oc1ccccc1)C2=O,165 to 168
11,COc1ccc(Oc2ccc3ccc(N)nc3n2)cc1,200
12,CCCCCOc1ccc2cc(CCC(N)(CO)CO)ccc2c1,106 to 109
13,CNC(=O)N1N=C(c2ccc(N)cc2)c2cc(Br)ccc2CC1C (stereo not drawn),121 to 124
14,COc1cc(N)nc(Cl)n1,186
15,CCOC(=O)CN1C(=O)CSC1=NN=C(C)C,60 to 62
16,CCOc1ccc(-c2c(Cl)c(CCl)nc3sc4c(c23)CCN(C(=O)OCc2ccccc2)C4)cc1,159 to 161
17,CSc1nn2c(N)cc(C)nc2c1S(=O)(=O)c1ccc(C)cc1,> 230
18,CCOC(=O)NC(=O)N(O)Cc1c(C)n(C(=O)c2ccc(Cl)cc2)c2ccc(OC)cc12,148
19,Cc1nn(CC(F)(F)COC(=O)N(C)C)c(-c2ccc(F)cc2)c1-c1ccc2c(c1)NC(=O)CO2,146
20,NCCc1c[nH]c2cc(Cl)c(NC(N)=O)cc12,212 to 213
21,OCCC1CCc2cc(OCc3ccc4ccccc4c3)ccc2C1 (stereo not drawn),90 to 91
22,CCOCc1nc2c(N)nc3cc(Br)ccc3c2n1CC1CCCCN1C(=O)OC(C)(C)C (stereo not drawn),190 to 192
23,NCc1c(-c2ccc(O)cc2)nnn1-c1ccc(C(F)(F)F)cc1Cl,96.5 to 98.9

row,SMILES,melting point [°C]
1,Cc1ccc(OC(=O)C=Cc2ccc([N+](=O)[O-])cc2)cc1,168 to 170
2,CCOc1ccc2c(c1)nc1n2CC(c2ccccn2)S1=O (stereo not drawn),145 to 147
3,O=C(O)CCC1OC(=O)C(O)=C1c1ccccc1 (stereo not drawn),177 to 179
4,c1ccc2c(c1)CCC(n1cncn1)C21OCCO1 (stereo not drawn),108
5,C=CCOC(=O)c1cccc(S(=O)(=O)n2c(=O)[nH]c(=O)c3ccc(Cl)cc32)c1,187 to 189
6,COc1cc(N)c(Cl)cc1C(=O)NCC1CCN(CCCCCCC(=O)c2ccccc2)CC1,128 to 130
7,Cc1cc(SCc2ccc(OCc3ccc(Cl)cc3Cl)cc2)ccc1OCC(=O)O,101 to 103
8,CCCCCC(O)C=Cc1scnc1CCCCCCC(=O)O (stereo not drawn),73 to 74
9,CC(C)(SCCCCCCNS(=O)(=O)c1ccc(Cl)cc1)C(=O)O,93 to 94
10,O=C(Oc1ccc(Cl)cn1)c1cc2ccccc2sc1=O,174 to 176
11,COC(=O)c1c[nH]c(C(=O)c2ccc(C)cc2)c1,155 to 159
12,C[C@H](CO)[C@H]1CC[C@H]2[C@@H]3C=CC4=CC(=O)C=C[C@]4(C)[C@H]3CC[C@]12C,156 to 157
13,O=C(Nc1cccc(S(=O)(=O)NCC2CC2)c1)c1cnn2c(C(F)F)cc(-c3ccc(C(F)(F)F)cc3)nc12,238
14,N#CC=Cc1ccc(Br)cc1,106
15,O=C(Cc1ccc(O)cc1)c1ccc(O)cc1O,186
16,NC(=O)C1=C(c2ccccc2)C(c2ccccc2)OC1=O (stereo not drawn),125 to 127
17,[N-]=[N+]=C1C(=O)Nc2c1cccc2C(F)(F)F,173 to 175
18,CC(C)OC(=O)N1CCC(c2nc3cc(-c4ccc(C(=O)NCCO)c(F)c4)ccc3o2)CC1,145 to 147
19,COc1ccc2nc(-c3ccccc3)cc(C(=O)Nc3ccc(CCCCN(C)Cc4ccc(OC)c(OC)c4)cc3)c2c1,148
20,Cc1ncn(-c2ccc(N)cc2F)n1,122 to 125
21,CC(C)C(C)(C)[Si](C)(C)Oc1ccc2c(c1)c(I)c1n2CCC1,97 to 98
22,CC(C)n1nc(-c2c(-c3ccccc3)nn3ccc(OCc4ccncc4)cc23)ccc1=O,218 to 220
